From article PMC6271978, “1H-2,3-Dihydroperimidine Derivatives: A New Class of Potent Protein Tyrosine Phosphatase 1B Inhibitors” (Molecules, 2013) come the findings set out here.

Structures are written as SMILES.

Data set [1] deals with T1, SHP-2 (Homo sapiens, UniProt Q06124).
T1 construct: made in house
T1 sequence (Q06124 1-593): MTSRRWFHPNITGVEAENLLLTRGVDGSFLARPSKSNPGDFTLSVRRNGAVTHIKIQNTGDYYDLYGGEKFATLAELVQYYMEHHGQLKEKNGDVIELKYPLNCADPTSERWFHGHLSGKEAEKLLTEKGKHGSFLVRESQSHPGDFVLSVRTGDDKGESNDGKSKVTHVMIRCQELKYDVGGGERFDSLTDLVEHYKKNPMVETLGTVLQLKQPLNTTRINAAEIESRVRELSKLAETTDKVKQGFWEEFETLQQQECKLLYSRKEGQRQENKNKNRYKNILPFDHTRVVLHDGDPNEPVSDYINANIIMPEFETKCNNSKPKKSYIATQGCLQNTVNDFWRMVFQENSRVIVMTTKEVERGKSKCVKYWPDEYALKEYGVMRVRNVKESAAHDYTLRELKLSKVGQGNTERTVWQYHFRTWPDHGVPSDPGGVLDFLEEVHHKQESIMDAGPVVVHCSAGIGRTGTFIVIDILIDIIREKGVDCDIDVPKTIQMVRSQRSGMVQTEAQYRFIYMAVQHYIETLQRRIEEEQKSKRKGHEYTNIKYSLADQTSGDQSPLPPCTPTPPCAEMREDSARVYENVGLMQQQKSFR
The data set is described as follows: SHP-2 inhibition, OMFP substrate assay. In kind it is biochemical. Particulars: for IC50: OMFP substrate, means ± SD of three replications, PC = Na3VO4. How it is done:
(§1) In addition to potency improvements, we investigated the selectivity of three representative compounds, namely, 1, 46 and 49 against other PTPs (TCPTP, SHP-1, SHP-2, LAR). […] Besides TCPTP, we tested the inhibitory activity of these compounds on other three homogenous enzymes SHP-1, SHP-2, and LAR [25].
(§2) A colorimetric assay to measure inhibition against PTP1B and TCPTP was performed in 96-well plates. Briefly, the tested compounds were solubilized in DMSO and serially diluted into concentrations for the inhibitory test. The assays were carried out in a final volume of 100 μL containing 50 mmol/L MOPS, pH 6.5, 2 mmol/L pNPP, 30 nmol/L GST-PTP1B or GST-TCPTP,and 2% DMSO, and the catalysis of pNPP was continuously monitored on a SpectraMax 340 microplate reader at 405 nm for 3 min at 30 °C. The IC50 value was calculated from the nonlinear curve fitting of the percent inhibition [inhibition (%)] vs. the inhibitor concentration using the Equation (1): Inhibition (%) = 100/[1 + (IC50/[I]k)] (1) where k is the Hill coefficient. To study the inhibition on the other PTPase family members, SHP1, SHP2 and LAR were prepared and assays were performed according to procedures described previously. Briefly, the enzymatic activity of the SHP1, SHP2 and LARwere determined at 30 °C by monitoring the dephosphorylation of substrate 3-o-methylfluorescein phosphate (OMFP), product was then detected at a 485 nm excitation wavelength and 530 nm emission wavelength by the EnVision multilabe plate reader (Perkin-Elmer Life Sciences, Boston, MA, USA). The assays were carried out in a final volume of 50 μL containing 50 mmol/L MOPS, pH 6.8, 10 μmol/L OMFP, 20 nmol/L recombinant enzyme, 2 mmol/L dithiothreitol , 1 mmol/L EDTA, and 2% DMSO. The initial rate of the dephosphorylation was presented by the early linear region of the enzymatic reaction kinetic curve, the inhibitory activity of the compound was continuously monitored.

Data set [2] deals with T2, SHP-1 (Homo sapiens, UniProt P29350).
T2 construct: made in house
T2 sequence (P29350 whole entry): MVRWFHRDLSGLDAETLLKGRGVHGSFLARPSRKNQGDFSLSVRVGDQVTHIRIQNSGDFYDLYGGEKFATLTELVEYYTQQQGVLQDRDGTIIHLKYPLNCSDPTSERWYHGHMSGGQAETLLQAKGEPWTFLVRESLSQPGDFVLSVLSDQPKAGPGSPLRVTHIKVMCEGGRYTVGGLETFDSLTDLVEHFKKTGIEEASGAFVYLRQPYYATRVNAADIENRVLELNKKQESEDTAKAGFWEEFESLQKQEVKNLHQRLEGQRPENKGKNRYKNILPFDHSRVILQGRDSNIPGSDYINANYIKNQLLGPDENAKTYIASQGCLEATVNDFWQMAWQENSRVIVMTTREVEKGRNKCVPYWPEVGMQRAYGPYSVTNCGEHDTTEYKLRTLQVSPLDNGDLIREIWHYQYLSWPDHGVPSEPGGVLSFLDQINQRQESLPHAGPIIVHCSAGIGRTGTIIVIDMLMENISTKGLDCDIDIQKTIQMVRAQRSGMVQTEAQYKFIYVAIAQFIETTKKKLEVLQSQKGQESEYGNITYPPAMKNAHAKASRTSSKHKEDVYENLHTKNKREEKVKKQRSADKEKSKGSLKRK
Kind of data set: SHP-1 inhibition, OMFP substrate assay. Format: biochemical. Particulars: for IC50: OMFP substrate, means ± SD of three replications, PC = Na3VO4. Here is the method:
as §1, §2

The target of data set [3] is T3, TCPTP (GST-TCPTP) (Homo sapiens, UniProt P17706).
T3 sequence (P17706 1-415): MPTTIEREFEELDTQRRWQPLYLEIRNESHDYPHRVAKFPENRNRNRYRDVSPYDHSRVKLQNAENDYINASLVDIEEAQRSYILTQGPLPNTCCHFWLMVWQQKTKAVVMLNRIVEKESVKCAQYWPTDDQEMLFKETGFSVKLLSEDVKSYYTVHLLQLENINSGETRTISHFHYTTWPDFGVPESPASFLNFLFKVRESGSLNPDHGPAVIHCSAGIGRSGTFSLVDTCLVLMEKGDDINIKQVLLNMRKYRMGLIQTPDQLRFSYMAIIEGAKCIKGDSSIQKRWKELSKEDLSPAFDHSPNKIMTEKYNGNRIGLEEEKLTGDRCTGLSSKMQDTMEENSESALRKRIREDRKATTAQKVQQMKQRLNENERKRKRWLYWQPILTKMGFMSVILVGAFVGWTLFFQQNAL
Kind of data set: TCPTP inhibition, colorimetric pNPP assay. In kind it is biochemical. The following applies: for IC50: pNPP substrate, means ± SD of three replications, PC = oleanolic acid; for TCPTP/PTP1B (selectivity, fold): ratio of IC50 TCPTP to IC50 PTP1B. How it is done:
as §1, §2

Data set [4] addresses T4, PTP1B (GST-PTP1B) (Homo sapiens, UniProt P18031).
T4 sequence (P18031 1-435): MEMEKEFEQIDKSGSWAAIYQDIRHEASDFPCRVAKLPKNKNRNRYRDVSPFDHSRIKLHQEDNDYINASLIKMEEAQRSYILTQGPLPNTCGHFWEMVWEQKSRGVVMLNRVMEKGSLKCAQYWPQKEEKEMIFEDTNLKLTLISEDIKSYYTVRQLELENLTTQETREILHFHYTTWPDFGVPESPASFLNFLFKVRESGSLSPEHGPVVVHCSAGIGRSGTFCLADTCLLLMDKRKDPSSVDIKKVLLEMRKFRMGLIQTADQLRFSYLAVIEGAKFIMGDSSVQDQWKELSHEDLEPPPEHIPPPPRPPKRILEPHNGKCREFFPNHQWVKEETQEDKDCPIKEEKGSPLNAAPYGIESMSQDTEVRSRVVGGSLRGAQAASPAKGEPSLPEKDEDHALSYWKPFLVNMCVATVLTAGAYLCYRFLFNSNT
The data set is described as follows: PTP1B inhibition, colorimetric pNPP assay. In kind it is biochemical. The following applies: pNPP substrate; for inhibition at 20 µg/mL: PTP1B, compound at 20 μg/mL.

The target of data set [5] is T5, LAR (Homo sapiens, UniProt P10586).
T5 sequence (P10586 1352-1607 limits assumed): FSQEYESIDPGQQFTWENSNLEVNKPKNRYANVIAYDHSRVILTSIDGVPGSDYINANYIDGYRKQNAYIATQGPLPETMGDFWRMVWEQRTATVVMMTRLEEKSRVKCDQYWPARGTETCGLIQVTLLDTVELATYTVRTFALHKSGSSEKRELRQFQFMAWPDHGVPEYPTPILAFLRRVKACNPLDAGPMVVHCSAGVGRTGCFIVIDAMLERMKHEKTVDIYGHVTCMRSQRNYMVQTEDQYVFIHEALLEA
The data set is described as follows: LAR inhibition, OMFP substrate assay. Format: biochemical. The following applies: NA = no activity (inhibitory ratio lower than 50% at the dose of 20 μg/mL), PC = Na3VO4. How it is done: as §1
as §2, with “To study the inhibition on the other PTPase family members, SHP1, SHP2 and LAR were prepared and assays were performed according to procedures described previously.” left out, “The assays were carried out in a final volume of 50 μL containing 50 mmol/L MOPS, pH 6.8, 10 μmol/L OMFP, 20 nmol/L recombinant enzyme, 2 mmol/L dithiothreitol , 1 mmol/L EDTA, and 2% DMSO. The initial rate of the dephosphorylation was presented by the early linear region of the enzymatic reaction kinetic curve, the inhibitory activity of the compound was continuously monitored.” left out

[6] abbreviates: means ± SD of three replications, OA/PC = oleanolic acid positive control.

`O=C(O)c1ccc(C2Nc3cccc4cccc(c34)N2)cc1` [Compound 1, 4-(2,3-dihydro-1H-perimidin-2-yl)benzoic acid]: the concentration for half-maximal inhibition (IC50) was determined as 31.2 ± 7.72 µM in data set [1], 23.3 ± 2.03 µM in data set [2], 4.83 ± 0.9 µM in data set [3] and 8.34 ± 1.07 µM in data set [4] (setting [6]). In data set [3], the “TCPTP/PTP1B (selectivity, fold)” value turned out to be 0.58. Also, the inhibition at 20 µg/mL in data set [4] turned out to be 98.6%.

Compound `O=C(O)CCCCCNC(=O)c1ccc(C2Nc3cccc4cccc(c34)N2)nc1` [Compound 49, 6-[6-(2,3-Dihydro-1H-perimidin-2-yl)nicotinamido]hexanoic acid] returned a melting point of 86.7 to 88.4 °C. In addition, the “IC50 LAR” value in data set [5] was “no visible activities”. In data set [1], the 50% inhibitory concentration (IC50) was 2.5 ± 0.22 µM. Besides, the “selectivity for PTP1B over SHP-2” value in data set [1] (from IC50 values) is recorded as “about 4 fold”. In addition, the IC50 in data set [2] was 2.72 ± 0.3 µM. Further, the “selectivity for PTP1B over SHP-1” value in data set [2] (from IC50 values) is “about 4 fold”. For the same compound, in data set [3], the IC50 amounted to 1.24 ± 0.12 µM and the “TCPTP/PTP1B (selectivity, fold)” value turned out to be 2.10. Also, in data set [4], 20 µg/mL produced 99.4% inhibition. Further, in data set [4] (setting [6]), the IC50 stood at 0.59 ± 0.05 µM and the “IC50 PTP1B” value is “submicromolar”.

On to `O=C(O)c1ccc(C2Nc3cccc4cccc(c34)N2)nc1` [Compound 41], for which the melting point fell in the range of 100.7 to 101.3 °C. This compound also gave an inhibition at 20 µg/mL in data set [4] of 96.6%. Further, 10.8 ± 0.69 µM corresponded to half-maximal inhibition in data set [4] (setting [6]) (IC50).

`COC(=O)CCCNC(=O)c1ccc(C2Nc3cccc4cccc(c34)N2)nc1` [Compound 43, Methyl 4-[6-(2,3-dihydro-1H-perimidin-2-yl)nicotinamido]butanoate] displayed a melting point of 100.1 to 105.4 °C. The compound further gave an inhibition at 20 µg/mL in data set [4] of 4.67%.

The compound `O=C(O)CCCCNC(=O)c1ccc(C2Nc3cccc4cccc(c34)N2)nc1` [Compound 48, 5-[6-(2,3-Dihydro-1H-perimidin-2-yl)nicotinamido]pentanoic acid] displayed a melting point of 117.1 to 120.3 °C. In data set [4], this compound showed an inhibition at 20 µg/mL of 91.5%. This compound also came in with an IC50 in data set [4] (setting [6]) of 3.56 ± 0.13 µM.

As to `O=C(O)COc1ccc(C2Nc3cccc4cccc(c34)N2)cc1` [Compound 23, 2-[4-(2,3-Dihydro-1H-perimidin-2-yl)phenoxy]acetic acid], the melting point is more than 265 °C. In data set [4], this compound returned an inhibition at 20 µg/mL of 98.4%. In data set [4] (setting [6]), the IC50 was 5.88 ± 0.25 µM.

One may read the IC50 as the midpoint of a concentration-inhibition curve. High values mean lower potency, low ones higher potency. As usually defined, the inhibition is the change of the read-out against control, counted positive when it falls. Low readings indicate a response near the control, high ones a response far below the control. A word on the melting point: it is the temperature of the solid-liquid transition.
